How the values were obtained:
Experiment in all cases: Test B pre-/postemergence plant response
Format in all cases: in vivo
[1] = system: Surinam grass (Brachiaria decumbens)
How it was run: (§1)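 Test compounds, formulated in a non-phytotoxic solvent mixture with surfactant, are applied to the soil surface (loam and sand blend) right after seeding, or sprayed over plants at the 1- to 4-leaf stage grown in peat moss/vermiculite medium. After 13 to 15 days under glasshouse conditions, each species is scored visually from 0 (no effect) to 100 (complete control) against controls.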

[2] = system: lambsquarters (Chenopodium album)
How it was run: as §1

[3] = system: sunflower (common oilseed sunflower, Helianthus annuus); details: Preemergence
How it was run: as §1

[4] = system: large crabgrass (Digitaria sanguinalis)
How it was run: as §1

corn (Zea mays) = system: corn (Zea mays)
How it was run: as §1

[5] = system: galium (catchweed bedstraw, Galium aparine); details: Preemergence
How it was run: as §1

[6] = system: goosegrass (Eleusine indica)
How it was run: as §1

[7] = system: nightshade (eastern black nightshade, Solanum ptycanthum); details: Preemergence
How it was run: as §1

[8] = system: pigweed (Amaranthus retroflexus)
How it was run: as §1

[9] = system: Italian ryegrass (Lolium multiflorum)
How it was run: as §1

[10] = system: woolly cupgrass (Eriochloa villosa)
How it was run: as §1

[11] = 31 g ai/ha, postemergence, scale 0 to 100, 0 is no effect, 100 is complete control
[12] = 62 g ai/ha, postemergence, 0 is no effect, 100 is complete control, 13 to 15 days
[13] = Postemergence, 125 g ai/ha, visual rating after 13 to 15 days, scale 0 (no effect) to 100 (complete control)
[14] = Postemergence, 250 g ai/ha, scale 0 to 100 (0 no effect, 100 complete control)
[15] = Preemergence, 31 g ai/ha, scale 0 to 100 (0 no effect, 100 complete control)
[16] = Preemergence, 62 g ai/ha, scale 0 to 100, 0 no effect, 100 complete control
[17] = Preemergence, 125 g ai/ha, scale 0 to 100, 0 no effect, 100 complete control
[18] = 250 g ai/ha, Preemergence, 0 to 100 scale
[19] = 31 g ai/ha, scale 0 to 100 (0 no effect, 100 complete control)
[20] = 62 g ai/ha, scale 0 to 100, 0 no effect, 100 complete control
[21] = 125 g ai/ha, scale 0 to 100, 0 no effect, 100 complete control

CCCc1ncc(C(=O)C2=C(O)CCCC2=O)c(=O)n1CCC [Compound 72]
5: Plant response rating, Corn (corn (Zea mays); [13])
80: Surinam Grass plant response rating (0 to 100 scale) [1, 12] | Plant response rating, Surinam Grass [1, 13] | Crabgrass, Large plant response rating (0 to 100 scale) [4, 12] | Plant response rating, Pigweed [8, 11]
90: Plant response rating, Lambsquarters [2, 11] | Plant response rating, Crabgrass, Large [4, 14]
50: Plant response rating, Cupgrass, Woolly [10, 13] | Plant response rating, Cupgrass, Woolly [10, 14]
100: Plant response rating, Surinam Grass [1, 14] | Lambsquarters plant response rating (0 to 100 scale) [2, 12] | Plant response rating, Lambsquarters [2, 18] | Plant response rating, Lambsquarters [2, 13] | Plant response rating, Lambsquarters [2, 14] | Plant response rating, Crabgrass, Large [4, 18] | Plant response rating, Crabgrass, Large [4, 16] | Plant response rating, Crabgrass, Large [4, 17] | Plant response rating, Goosegrass [6, 18] | Plant response rating, Goosegrass [6, 17] | Pigweed plant response rating (0 to 100 scale) [8, 12] | Plant response rating, Pigweed [8, 13] | Plant response rating, Pigweed [8, 14] | Plant response rating, Pigweed [8, 17]
98: Plant response rating, Lambsquarters [2, 15] | Plant response rating, Lambsquarters [2, 16] | Plant response rating, Lambsquarters [2, 17] | Plant response rating, Goosegrass [6, 16] | Plant response rating, Nightshade [7, 21] | Plant response rating, Pigweed [8, 15] | Plant response rating, Pigweed [8, 16]
70: Plant response rating, Goosegrass [6, 14]
65: Plant response rating, Sunflower [3, 21] | Goosegrass plant response rating (0 to 100 scale) [6, 12] | Plant response rating, Goosegrass [6, 13] | Plant response rating, Cupgrass, Woolly [10, 18]
75: Plant response rating, Surinam Grass [1, 11] | Plant response rating, Surinam Grass [1, 16] | Plant response rating, Surinam Grass [1, 17] | Plant response rating, Crabgrass, Large [4, 11]
30: Plant response rating, Ryegrass, Italian [9, 14]
25: Plant response rating, Sunflower [3, 19] | Plant response rating, Sunflower [3, 20]
10: Plant response rating, Corn (corn (Zea mays); [14]) | Plant response rating, Ryegrass, Italian [9, 13]
95: Plant response rating, Crabgrass, Large [4, 15] | Plant response rating, Nightshade [7, 19] | Plant response rating, Nightshade [7, 20]
0: Plant response rating, Corn (corn (Zea mays); [11]) | Corn plant response rating (0 to 100 scale) (corn (Zea mays); [12]) | Plant response rating, Corn (corn (Zea mays); [18]) | Plant response rating, Corn (corn (Zea mays); [15]) | Plant response rating, Corn (corn (Zea mays); [16]) | Plant response rating, Corn (corn (Zea mays); [17]) | Plant response rating, Galium [5, 19] | Plant response rating, Ryegrass, Italian [9, 11] | Ryegrass, Italian plant response rating (0 to 100 scale) [9, 12] | Plant response rating, Ryegrass, Italian [9, 15] | Plant response rating, Ryegrass, Italian [9, 16] | Plant response rating, Ryegrass, Italian [9, 17] | Plant response rating, Cupgrass, Woolly [10, 15] | Plant response rating, Cupgrass, Woolly [10, 16]
45: Plant response rating, Surinam Grass [1, 15] | Plant response rating, Cupgrass, Woolly [10, 11] | Cupgrass, Woolly plant response rating (0 to 100 scale) [10, 12] | Plant response rating, Cupgrass, Woolly [10, 17]
85: Plant response rating, Crabgrass, Large [4, 13] | Plant response rating, Galium ([5]; 250 g ai/ha, 0 to 100 scale) | Plant response rating, Galium [5, 20] | Plant response rating, Galium [5, 21]
60: Plant response rating, Goosegrass [6, 11] | Plant response rating, Goosegrass [6, 15]
